Key:
[1] = test system: fMLF/cytochalasin B (CB)-activated human neutrophils; experiment: Superoxide anion generation (ferricytochrome c reduction) in fMLF/CB-activated human neutrophils; type: cell-based; conditions: Neutrophil, fMLF/CB stimulation, mean ± SEM (n = 3–5); for inhibition at 10 µM: 10 μM compound
Protocol: (§1) The study involving neutrophils was approved by the Institutional Review Board of Chang Gung Memorial Hospital under IRB number: 201902217A3 and was conducted in accordance with the principles of the Declaration of Helsinki. Healthy volunteers aged 20–35 years provided signed informed consents for blood collection. Isolation of neutrophils was done using dextran sedimentation, Ficoll-Hypaque density gradient centrifugation, and hypotonic haemolysis. For the anti-inflammatory studies, neutrophils were suspended in Hank’s balanced salt solution (HBSS) containing 1 mM Ca^2+ at a pH of 7.4[72].
The reduction of ferricytochrome c was utilised to measure the production of SO anions in activated human neutrophils. […] The neutrophils were then stimulated with fMLF (0.1 μM) and CB (1 μg/mL) for 13 min. […] LY294002 was used as a positive control.

[2] = test system: fMLF/cytochalasin B (CB)-activated human neutrophils; experiment: Elastase release in fMLF/CB-activated human neutrophils; type: cell-based; conditions: Homo sapiens, Neutrophil, fMLF/CB stimulation, mean ± SEM (n = 3–5); for inhibition at 10 µM: 10 μM compound
Protocol: as §1
Neutrophils were subsequently stimulated with fMLF (0.1 μM) and CB (0.5 μg/mL) for 13 min. […] LY294002 was used as a positive control.

Row | SMILES | inhibition at 10 µM [1] | inhibition at 10 µM [2] | melting point | IC50 [1] | IC50 [2]
1 | CC(C)(C)C(=O)/C=C/c1ccc(Cl)cc1 [Compound 1, (E)-1-(4-Chlorophenyl)-4,4-dimethylpent-1-en-3-one] | 23.4 ± 7.96% | 8.43 ± 4.28% | 85 to 85.5 °C |  | 
2 | O=C(/C=C/c1ccc([N+](=O)[O-])cc1)C1CC1 [Compound 1a, (E)-1-Cyclopropyl-3-(4-nitrophenyl)prop-2-en-1-one] | 20.5 ± 4.05% | 2.36 ± 3.3% | 118.9 to 120 °C |  | 
3 | O=C(/C=C/c1ccc(Cl)cc1)c1ccccc1 [Compound 2, (E)-3-(4-Chlorophenyl)-1-phenylprop-2-en-1-one] | 94.7 ± 3.22% | 62 ± 6.31% |  | 3.01 ± 0.68 µM | 7.78 ± 0.96 µM
4 | CC1(C(=O)/C=C/c2ccc([N+](=O)[O-])cc2)CC1 [Compound 2a, (E)-1-(1-Methylcyclopropyl)-3-(4-nitrophenyl)prop-2-en-1-one] | 8.75 ± 5.03% | 8.39 ± 2.25% | 133.1 °C |  | 
5 | CC(C)(C)C(=O)/C=C/c1ccc(Br)cc1 [Compound 3, (E)-1-(4-Bromophenyl)-4,4-dimethylpent-1-en-3-one] | 25 ± 2.48% | 9.09 ± 2.01% | 101 °C |  | 
6 | O=C(/C=C/c1ccc([N+](=O)[O-])cc1)C1CCCCC1 [Compound 3a, (E)-1-Cyclohexyl-3-(4-nitrophenyl)prop-2-en-1-one] | 11.4 ± 1.6% | 11.9 ± 4.68% | 132 to 134 °C |  | 
7 | CC(C)(C)C(=O)/C=C/c1ccc(C(F)(F)F)cc1 [Compound 4, (E)-4,4-Dimethyl-1-(4-(trifluoromethyl)phenyl)pent-1-en-3-one] | 11.7 ± 5.39% | 1.18 ± 0.98% | 70 to 71 °C |  | 
8 | Cc1ccccc1C(=O)/C=C/c1ccc([N+](=O)[O-])cc1 [Compound 4a, (E)-3-(4-Nitrophenyl)-1-(o-tolyl)prop-2-en-1-one] | 100 ± 2.65% | 63.8 ± 5.98% | 128 to 129 °C | 4.55 ± 0.1 µM | 7.22 ± 1.16 µM
9 | CCOc1ccccc1C(=O)/C=C/c1ccccc1C(F)(F)F [Compound 5, (E)-1-(2-Ethoxyphenyl)-3-(2-(trifluoromethyl)phenyl)prop-2-en-1-one] | 68.3 ± 8.99% | 8.13 ± 3.43% | 70.5 to 71.5 °C | 1.81 ± 0.22 µM | 
10 | COc1ccccc1C(=O)/C=C/c1ccc([N+](=O)[O-])cc1 [Compound 5a, (E)-1-(2-Methoxyphenyl)-3-(4-nitrophenyl)prop-2-en-1-one] | 102 ± 1.92% | 75.6 ± 5.02% | 116.5 to 118 °C | 3.77 ± 0.33 µM | 6.25 ± 0.52 µM
11 | O=C(/C=C/c1ccc([N+](=O)[O-])cc1)c1ccccn1 [Compound 7, (E)-3-(4-Nitrophenyl)-1-(pyridin-2-yl)prop-2-en-1-one] | 94.5 ± 2.89% | 78.1 ± 0.36% | 153 to 155 °C | 4.35 ± 0.3 µM | 6.17 ± 0.1 µM
12 | COc1ccc(C(=O)/C=C/c2ccc([N+](=O)[O-])cc2)cc1 [Compound 7a, (E)-1-(4-Methoxyphenyl)-3-(4-nitrophenyl)prop-2-en-1-one] | 59.7 ± 1.41% | 63.8 ± 6.59% |  | 6.9 ± 0.67 µM | 6.33 ± 1.15 µM
13 | CC(C)(C)C(=O)/C=C/c1cccc([N+](=O)[O-])c1 [Compound 8, (E)-4,4-Dimethyl-1-(3-nitrophenyl)pent-1-en-3-one] | 10.3 ± 2.86% | 4.89 ± 0.91% | 92 to 93 °C |  | 
14 | COc1ccc(C(=O)/C=C/c2ccc([N+](=O)[O-])cc2)cc1OC [Compound 8a, (E)-1-(3,4-Dimethoxyphenyl)-3-(4-nitrophenyl)prop-2-en-1-one] | 81 ± 2.57% | 56.9 ± 3.22% | 189 to 191 °C | 2.72 ± 0.35 µM | 8.31 ± 0.78 µM
15 | CC(C)(C)C(=O)/C=C/c1ccc(C#N)cc1 [Compound 9, (E)-4-(4,4-Dimethyl-3-oxopent-1-en-1-yl)benzonitrile] | 20.9 ± 5.55% | 3.76 ± 2.69% | 131 to 133 °C |  | 
16 | O=C(/C=C/c1ccc([N+](=O)[O-])cc1)c1ccc2c(c1)OCO2 [Compound 9a, (E)-1-(Benzo[d][1,3]dioxol-5-yl)-3-(4-nitrophenyl)prop-2-en-1-one] | 18.1 ± 3.34% | 16.7 ± 6.07% | 182.4 °C |  | 
17 | Cc1ccc(/C=C/C(=O)C(C)(C)C)cc1 [Compound 10, (E)-4,4-Dimethyl-1-(p-tolyl)pent-1-en-3-one] | 8.56 ± 3.04% | 3.91 ± 2.82% | 79 to 80 °C |  | 
18 | O=C(/C=C/c1ccc(Cl)cc1)c1ccc2ccccc2c1 [Compound 10a, (E)-3-(4-Chlorophenyl)-1-(naphthalen-2-yl)prop-2-en-1-one] | 14.2 ± 6.87% | 33.2 ± 6.47% | 162 to 164 °C |  | 

Row | SMILES | inhibition at 10 µM [1] | inhibition at 10 µM [2] | melting point | IC50 [1] | IC50 [2]
19 | CC(C)(C)Oc1ccc(/C=C/C(=O)C(C)(C)C)cc1 [Compound 11, (E)-1-(4-(tert-Butoxy)phenyl)-4,4-dimethylpent-1-en-3-one] | 16.8 ± 3.85% | 12.1 ± 3.43% | 110 to 111 °C |  | 
20 | CC(C)(C)Oc1ccc(/C=C/C(=O)c2ccco2)cc1 [Compound 12, (E)-3-(4-(tert-Butoxy)phenyl)-1-(furan-2-yl)prop-2-en-1-one] | 27.3 ± 2.07% | 19.2 ± 4.05% | 132.8 to 134.8 °C |  | 
21 | COc1ccccc1C(=O)/C=C/c1ccc(Cl)cc1 [Compound 12a, (E)-3-(4-Chlorophenyl)-1-(2-methoxyphenyl)prop-2-en-1-one] | 93.8 ± 3.02% | 62.2 ± 5.35% | 76 to 78 °C | 3.47 ± 0.6 µM | 7.56 ± 1.05 µM
22 | COc1cccc(C(=O)/C=C/c2ccc(Cl)cc2)c1 [Compound 13a, (E)-3-(4-Chlorophenyl)-1-(3-methoxyphenyl)prop-2-en-1-one] | 101.7 ± 0.44% | 91.9 ± 1.63% |  | 1.37 ± 0.73 µM | 3.3 ± 0.68 µM
23 | CC(C)(C)C(=O)/C=C/c1cc(F)cc(F)c1 [Compound 14, (E)-1-(3,5-Difluorophenyl)-4,4-dimethylpent-1-en-3-one] | 69.1 ± 6.71% | 12 ± 3.52% | 71 to 72 °C | 6.52 ± 0.57 µM | 
24 | COc1ccc(C(=O)/C=C/c2ccc(Cl)cc2)cc1 [Compound 14a, (E)-3-(4-Chlorophenyl)-1-(4-methoxyphenyl)prop-2-en-1-one] | 58.9 ± 3.26% | 5.49 ± 4.32% |  | 6.09 ± 7.19 µM | 
25 | COc1ccc(C(=O)/C=C/c2ccc(Cl)cc2)c(OC)c1 [Compound 15a, (E)-3-(4-Chlorophenyl)-1-(2,4-dimethoxyphenyl)prop-2-en-1-one] | 13.9 ± 2.43% | 4.42 ± 3.9% |  |  | 
26 | CC(C)(C)C(=O)/C=C/c1ccc(Cl)c(Cl)c1 [Compound 16, (E)-1-(3,4-Dichlorophenyl)-4,4-dimethylpent-1-en-3-one] | 16.5 ± 4.67% | 10.2 ± 0.59% | 94 to 96 °C |  | 
27 | COc1ccc(C(=O)/C=C/c2ccc(Cl)cc2)cc1OC [Compound 16a, (E)-3-(4-Chlorophenyl)-1-(3,4-dimethoxyphenyl)prop-2-en-1-one] | 68.2 ± 7.74% | 22.9 ± 7.11% |  | 5.53 ± 1.48 µM | 
28 | CC(C)(C)C(=O)/C=C/c1ccc(Cl)c(F)c1 [Compound 17, (E)-1-(4-Chloro-3-fluorophenyl)-4,4-dimethylpent-1-en-3-one] | 40.6 ± 3.89% | 9.13 ± 1.78% | 98.5 to 99.2 °C |  | 
29 | COc1ccccc1C(=O)/C=C/c1ccccc1Cl [Compound 17a, (E)-3-(2-Chlorophenyl)-1-(2-methoxyphenyl)prop-2-en-1-one] | 99.05 ± 0.64% | 75.8 ± 6.19% | 60 to 62 °C | 2.95 ± 0.4 µM | 5.36 ± 0.67 µM
30 | COc1ccc(C(=O)/C=C/c2ccccc2Cl)cc1 [Compound 19a, (E)-3-(2-Chlorophenyl)-1-(4-methoxyphenyl)prop-2-en-1-one] | 80.2 ± 1.98% | 37.6 ± 3.54% |  | 5.23 ± 0.62 µM | 
31 | COc1ccc(C(=O)/C=C/c2ccccc2Cl)cc1OC [Compound 20a, (E)-3-(2-Chlorophenyl)-1-(3,4-dimethoxyphenyl)prop-2-en-1-one] | 95.6 ± 1.14% | 67.7 ± 5.37% |  | 3.55 ± 0.56 µM | 6.79 ± 0.72 µM
32 | CC(C)(C)C(=O)/C=C/c1ccc(Br)s1 [Compound 24, (E)-1-(5-Bromothiophen-2-yl)-4,4-dimethylpent-1-en-3-one] | 13 ± 6.88% | 25.7 ± 5.36% |  |  | 
33 | CCOc1ccccc1C(=O)/C=C/c1ccc(Br)s1 [Compound 25, (E)-3-(5-Bromothiophen-2-yl)-1-(2-ethoxyphenyl)prop-2-en-1-one] | 67.8 ± 3.19% | 26.9 ± 5.5% |  | 6.21 ± 0.36 µM | 
34 | CC(C)(C)C(=O)/C=C/c1ccc2ccccc2n1 [Compound 27, (E)-4,4-Dimethyl-1-(quinolin-2-yl)pent-1-en-3-one] | 2.26 ± 0.97% | 5.21 ± 2.72% |  |  | 
35 | O=c1cc(N2CCOCC2)oc2c(-c3ccccc3)cccc12 [LY294002, reference compound] | 102 ± 2.64% | 82.5 ± 3.76% |  |  | 

— publication PMC11413964, “Discovery of 1,3-disubstituted prop-2-en-1-one derivatives as inhibitors of neutrophilic inflammation via modulation of MAPK and Akt pathways” (Journal of Enzyme Inhibition and Medicinal Chemistry, 2024)
